Measured values from patent publication US5026836A, “6-sulfenamide, 6-sulfinamide and 6-sulfonamide purines, purine nucleosides, purine nucleotides, pharmaceutical compositions, and processes of making” (priority 1988, dated 1991).
“Also recorded” adds a separate entry of the source.

Assays:
Type in all cases: in vivo, mouse
L1210 cells = assay: Life span of BDF1 mice inoculated ip with 10^6 L1210 leukemia cells
Protocol: As illustrative examples of use of the compounds of the invention the following examples are given. […] These standard tests utilize protocols developed under the auspices of the Developmental Therapeutics Program, Division of Cancer Treatment, National Cancer Institute, Bethesda, Md., U.S.A. Except as otherwise indicated the tests conform to these protocols and are evaluated utilizing criteria defined by the protocols.
Values below 25% are considered capable of producing effective therapy, those below 10% are considered good and those below 5% are considered very good. This expresses the percent of the cells which survived treatment based upon the original cells in the inoculum. Those tests expressed as increases in life span (% ILS) indicate the increased life span of the drug treated group compared to a control group.
As an indicator of reproducible activity, compounds of the invention and other known cancer chemotherapeutic agents were screened against L1210 lymphoid leukemia in vivo utilizing the mouse as a test species. Normal NCI protocols for this test require 10^5 seed cells of the L1210 cell line.
Cytosine Arabinoside must be given every three hours.
Mice were inoculated intraperitoneally on day 0 with a million cells of murine leukemia L1210. Drug was given qd days 1, 4 and 7. Increased life span is the mean increase in the treated group presented as a percentage of the mean life span of control mice.
Mice were inoculated intraperitoneally on day 0 with a million cells of murine leukemia L1210. Drugs were given qd days 1, 3, 5 and 7. Increased life span is presented as a percentage of the mean life span of control mice.

L1210/MTX cells = assay: Methotrexate resistant L1210 cells surviving treatment
Protocol: In Example I Compound 19 was tested against Methotrexate resistant L1210 cells.

L1210/ARA-C cells = assay: Cytosine Arabinoside resistant L1210 cells surviving treatment
[1] = ip 37 mg/kg/inj, bid days 1,3,5,7
[2] = ip 62 mg/kg/inj, bid days 1,4,7
[3] = ip 104 mg/kg/inj, qd days 1,4,7
[4] = ip 173 mg/kg/inj, qd days 1,4,7

Nc1nc([S+](N)[O-])c2ncn([C@@H]3O[C@H](CO)[C@@H](O)[C@H]3O)c2n1 (mixture of isomers) [Compound 19, 2-amino-9-β-D-ribofuranosyl-9H-purine-6-sulfinamide]
Increased life span (L1210 cells; 37 mg/kg/inj injected, qd days 1,3,5,7): 74% | Increased life span (L1210 cells; 62 mg/kg/inj injected, qd days 1,3,5,7): 123% | Increased life span (L1210 cells; 104 mg/kg/inj injected, qd days 1,3,5,7): 136% | Increased life span (L1210 cells; 173 mg/kg/inj injected, qd days 1,3,5,7): 189% | dose at which significant activity is indicated (L1210 cells; delivered only once on day 1, ip): about 37 mg per kg | T/C (%) (L1210 cells; ip 13 mg/kg, qd day 1): 106% | T/C (%) (L1210 cells; ip 22 mg/kg, qd day 1): 106% | Life span (% T/C) (L1210 cells; ip 22 mg/kg/inj, bid days 1,3,5,7): 193% | Life span (% T/C) (L1210 cells; ip 22 mg/kg/inj, bid days 1,4,7): 161% | Life span (% T/C) (L1210 cells; ip 22 mg/kg/inj, bid days 1-7): 200% | T/C (%) (L1210 cells; ip 37 mg/kg, qd day 1): 128% | % ILS (L1210 cells; [1]): 79% | Life span (% T/C) (L1210 cells; [1]): 236% | Life span (% T/C) (L1210 cells; ip 37 mg/kg/inj, bid days 1,4,7): 216% | Life span (% T/C) (L1210 cells; ip 37 mg/kg/inj, bid days 1-7): 233% | Life span (% T/C) (L1210 cells; ip 37 mg/kg/inj, qd days 1,3,5,7): 174% | Increased life span (L1210 cells; ip 37 mg/kg/inj, qd days 1,4,7): 54% | Life span (% T/C) (L1210 cells; ip 37 mg/kg/inj, qd days 1,4,7): 154% | Life span (% T/C) (L1210 cells; ip 37 mg/kg/inj, qd days 1-7): 213% | T/C (%) (L1210 cells; ip 62 mg/kg, bid day 1): 184% | T/C (%) (L1210 cells; ip 62 mg/kg, qd day 1): 135% | T/C (%) (L1210 cells; ip 62 mg/kg, qid day 1): 194% | T/C (%) (L1210 cells; ip 62 mg/kg, tid day 1): 183% | Life span (% T/C) (L1210 cells; ip 62 mg/kg/inj, bid days 1,3,5,7): 285% | % ILS (L1210 cells; [2]): 88% | Life span (% T/C) (L1210 cells; [2]): 249% | long term survivors (L1210 cells; ip 62 mg/kg/inj, bid days 1-7): 2 | Life span (% T/C) (L1210 cells; ip 62 mg/kg/inj, bid days 1-7, 2 long term survivors not included): 361% | Life span (% T/C) (L1210 cells; ip 62 mg/kg/inj, qd days 1,3,5,7): 223% | Increased life span (L1210 cells; ip 62 mg/kg/inj, qd days 1,4,7): 93% | Life span (% T/C) (L1210 cells; ip 62 mg/kg/inj, qd days 1,4,7): 193% | Life span (% T/C) (L1210 cells; ip 62 mg/kg/inj, qd days 1-7): 239% | T/C (%) (L1210 cells; ip 104 mg/kg, qd day 1): 151% | Life span (% T/C) (L1210 cells; ip 104 mg/kg/inj, bid days 1,4,7, 1 toxic death not included): 311% | Life span (% T/C) (L1210 cells; ip 104 mg/kg/inj, qd days 1,3,5,7): 236% | Increased life span (L1210 cells; [3]): 130% | Life span (% T/C) (L1210 cells; [3]): 230% | long term survivors (L1210 cells; ip 104 mg/kg/inj, qd days 1-7): 1 | Life span (% T/C) (L1210 cells; ip 104 mg/kg/inj, qd days 1-7, 1 long term survivor not included): 307% | T/C (%) (L1210 cells; ip 173 mg/kg, qd day 1): 167% | Life span (% T/C) (L1210 cells; ip 173 mg/kg/inj, qd days 1,3,5,7): 289% | Increased life span (L1210 cells; [4]): 169% | Life span (% T/C) (L1210 cells; [4]): 269% | in vivo antitumor activity (L1210 cells; mouse, in vivo): good in vivo activity | oral activity (words) (L1210 cells): Oral activity is seen | Activity against I.P. L1210 cells, T/C (L1210 cells; oral 37 mg/kg, bid days 1,3,5,7): 148.6% | Activity against I.P. L1210 cells, T/C (L1210 cells; oral 37 mg/kg, qd days 1,4,7): 144.6% | % ILS (L1210 cells; oral 37 mg/kg/inj, bid days 1,3,5,7): 49% | Increased life span (L1210 cells; oral 37 mg/kg/inj, qd days 1,4,7): 45% | Activity against I.P. L1210 cells, T/C (L1210 cells; oral 62 mg/kg, bid days 1,4,7): 140.0% | Activity against I.P. L1210 cells, T/C (L1210 cells; oral 62 mg/kg, qd days 1,4,7): 144.6% | % ILS (L1210 cells; oral 62 mg/kg/inj, bid days 1,4,7): 40% | Increased life span (L1210 cells; oral 62 mg/kg/inj, qd days 1,4,7): 45% | Activity against I.P. L1210 cells, T/C (L1210 cells; oral 104 mg/kg, qd days 1,4,7): 138.5% | Increased life span (L1210 cells; oral 104 mg/kg/inj, qd days 1,4,7): 38% | Activity against I.P. L1210 cells, T/C (L1210 cells; oral 173 mg/kg, qd days 1,4,7): 138.5% | Increased life span (L1210 cells; oral 173 mg/kg/inj, qd days 1,4,7): 38% | oral activity (words) (L1210 cells; listed as 2-amino-9-β-D-ribofuranosyl-9H-purine-6-sulfinamide): active in both an oral and an injectable form; also recorded: orally active | % ILS (L1210 cells; single agent day 1, Compound 19 173 mg/kg, Compound 18 22 mg/kg (Table 12)): 88% | % ILS (L1210 cells; single agent day 1, Compound 19 173 mg/kg, Tiazofurin 22 mg/kg (Table 13)): 81% | activity against Methotrexate resistant cells (L1210/MTX cells; depending on dose level and regimen): activity can be seen against these Methotrexate resistant cells | L1210/MTX cells surviving (% of day zero inoculum) (L1210/MTX cells; ip 104 mg/kg/day, qd days 1,4,7): 238.4% | L1210/MTX cells surviving (% of day zero inoculum) (L1210/MTX cells; ip 173 mg/kg/day, qd day 1): 1.6% | L1210/MTX cells surviving (% of day zero inoculum) (L1210/MTX cells; ip 173 mg/kg/day, qd days 1,4,7): 33.8% | L1210/ARA-C cells surviving (% of day zero inoculum) (L1210/ARA-C cells; [3]): 1.7% | L1210/ARA-C cells surviving (% of day zero inoculum) (L1210/ARA-C cells; ip 173 mg/kg/inj, qd day 1): 0.02% | L1210/ARA-C cells surviving (% of day zero inoculum) (L1210/ARA-C cells; [4]): 0.6% | efficacy against ARA-C resistant line vs parent (L1210/ARA-C cells; mouse, in vivo): greater efficacy against this resistant cell line than it did to the parent non-drug resistant L1210 cells
